Results: patent US9126938B2, “Phosphatidylcholine transfer protein inhibitors” (The Brigham and Women's Hospital, Inc., priority 2009, dated 2015)

Legend:
PC-TP = target: T1, PC-TP (Homo sapiens, UniProt Q9UKL6); test: PC-TP inhibition assay (Wagle et al. method); assay type: biochemical; settings: for IC50: Table 1, concentration value; for Activity (PC-TP), result in words: compound fluorescence in the fluorescence-based assay
T1 sequence (Q9UKL6 1-214): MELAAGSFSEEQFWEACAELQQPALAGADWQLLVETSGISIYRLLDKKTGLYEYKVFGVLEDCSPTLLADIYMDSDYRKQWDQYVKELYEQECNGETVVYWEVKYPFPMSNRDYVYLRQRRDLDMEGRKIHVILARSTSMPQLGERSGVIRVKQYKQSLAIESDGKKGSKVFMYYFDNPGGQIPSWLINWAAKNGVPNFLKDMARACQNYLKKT
Procedure: (§1) The compounds in Table 1 and 2 were assayed for their ability to inhibit PC-TP and StarD10, respectively, using a known assay method (see Wagle et al., 2008. Anal. Biochem. 383:85-92, which is incorporated herein by reference in its entirety). Further, certain compounds were also tested for their ability to inhibit StarD7 (see Table 2).

StarD10 = target: T2, StarD10 (Homo sapiens, UniProt Q9Y365); test: StarD10 inhibition assay; assay type: biochemical
T2 sequence (Q9Y365 1-291): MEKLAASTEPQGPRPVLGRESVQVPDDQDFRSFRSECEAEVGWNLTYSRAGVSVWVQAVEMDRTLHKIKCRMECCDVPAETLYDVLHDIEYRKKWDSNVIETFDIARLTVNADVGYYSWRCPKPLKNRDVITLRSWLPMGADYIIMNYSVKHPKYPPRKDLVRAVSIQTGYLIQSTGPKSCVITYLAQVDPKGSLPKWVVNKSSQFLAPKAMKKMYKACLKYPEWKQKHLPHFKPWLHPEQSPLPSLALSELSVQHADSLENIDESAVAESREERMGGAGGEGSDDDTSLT
Procedure: as §1

StarD7 = target: T3, StarD7 (Homo sapiens, UniProt Q9NQZ5); test: StarD7 inhibition assay; assay type: biochemical
T3 sequence (Q9NQZ5 78-370): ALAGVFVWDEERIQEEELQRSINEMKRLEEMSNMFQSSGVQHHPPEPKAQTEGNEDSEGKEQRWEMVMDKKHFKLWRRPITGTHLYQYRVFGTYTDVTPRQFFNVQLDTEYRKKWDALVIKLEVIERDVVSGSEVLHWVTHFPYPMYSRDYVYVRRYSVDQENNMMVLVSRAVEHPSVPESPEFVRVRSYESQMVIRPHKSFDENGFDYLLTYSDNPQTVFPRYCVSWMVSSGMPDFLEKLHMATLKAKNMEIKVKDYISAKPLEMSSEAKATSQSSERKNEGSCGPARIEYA
Procedure: as §1

[1] = tested on: insulin signaling pathway in cultured primary human hepatocytes; test: Activation of insulin signaling pathway in primary human hepatocytes (immunoblot); assay type: cell-based; settings: serum starved hepatocytes, 60 minute exposure, doses of 0.05 and 0.10 μM, no insulin
Procedure: Cultured primary human hepatocytes (commercially obtained) were serum starved overnight followed by 60 minute exposure to A) Compound 4 or B) Compound 16 at the indicated concentrations. Inhibitors were dissolved in DMSO. Negative controls included Control (no additions) and DMSO alone. The positive control included DMSO plus insulin (50 nM) for 30 minutes. Cells were harvested and lysates were subjected to immunoblot analyses using antibodies, as indicated.

## Cc1cc(C)nc(NS(=O)(=O)c2ccc(NC(=S)NC(=O)c3ccc(Cl)cc3Cl)cc2)n1 [Compound 1, 2,4-dichloro-N-(4-(N-(4,6-dimethyl-pyrimidin-2-yl)sulfamoyl)phenylcarbamothioyl) benzamide]
PC-TP
  IC50: 3.2 µM

## Cc1cc(C)nc(NS(=O)(=O)c2ccc(NC(=S)NC(=O)c3ccc(F)cc3)cc2)n1 [Compound 2, N-(4-(N-(4,6-dimethylpyrimidin-2-yl)sulfamoyl)phenylcarbamothioyl)-4-fluorobenzamide]
PC-TP
  inhibition at 100 µM: 55%

## Cc1cc(C)nc(NS(=O)(=O)c2ccc(NC(=S)NC(=O)c3ccccc3)cc2)n1 [Compound 3, N-(4-(N-(4,6-dimethylpyrimidin-2-yl)sulfamoyl)phenylcarbamothioyl) benzamide]
PC-TP
  inhibition at 100 µM: 45%

## Cc1cc(C)nc(NS(=O)(=O)c2ccc(NC(=O)NC(=O)c3ccccc3Cl)cc2)n1 [Compound 5, 2-chloro-N-(4-(N-(4,6-dimethylpyrimidin-2-yl)sulfamoyl)phenylcarbamoyl) benzamide]
PC-TP
  IC50: 30 µM

## Cc1cc(C)nc(NS(=O)(=O)c2ccc(NC(=O)NC(=O)c3ccc(Cl)cc3)cc2)n1 [Compound 6, 4-chloro-N-(4-(N-(4,6-dimethylpyrimidin-2-yl)sulfamoyl)phenylcarbamoyl) benzamide]
PC-TP
  IC50: 26 µM

## Cc1cc(C)nc(NS(=O)(=O)c2ccc(NC(=O)NC(=O)c3ccc(Cl)cc3Cl)cc2)c1 [Compound 7, 2,4-dichloro-N-(4-(N-(4,6-dimethylpyridin-2-yl)sulfamoyl)phenylcarbamoyl) benzamide]
PC-TP
  IC50: 5 µM

## Cc1cc(C)nc(NS(=O)(=O)c2ccc(NC(=O)NC(=O)c3cccc(Cl)c3Cl)cc2)n1 [Compound 9, 2,3-dichloro-N-(4-(N-(4,6-dimethylpyrimidin-2-yl)sulfamoyl)phenylcarbamoyl) benzamide]
PC-TP
  IC50: 3.2 µM
StarD10
  IC50: 39 µM

## Cc1cc(C)nc(NS(=O)(=O)c2ccc(NC(=O)NC(=O)c3ccc(Cl)c(Cl)c3)cc2)n1 [Compound 10, 3,4-dichloro-N-(4-(N-(4,6-dimethylpyrimidin-2-yl)sulfamoyl)phenyl-carbamoyl)benzamide]
PC-TP
  IC50: 30 µM

## Cc1cc(C)nc(NS(=O)(=O)c2ccc(N(C)C(=O)NC(=O)c3ccc(Cl)cc3Cl)cc2)n1 [Compound 11, 2,4-dichloro-N-((4-(N-(4,6-dimethylpyrimidin-2-yl)sulfamoyl)phenyl)(methyl)carbamoyl)benzamide]
PC-TP
  IC50: > 50 µM

## Cc1cc(C)nc(N(C)S(=O)(=O)c2ccc(NC(=O)NC(=O)c3ccc(Cl)cc3Cl)cc2)n1 [Compound 12, 2,4-dichloro-N-(4-(N-(4,6-dimethylpyrimidin-2-yl)-N-methylsulfamoyl)phenylcarbamoyl) benzamide]
PC-TP
  IC50: 2.3 µM
StarD10
  IC50: 11 µM

## Cc1cc(NS(=O)(=O)c2ccc(NC(=O)NC(=O)c3ccc(Cl)cc3Cl)cc2)nc(C)n1 [Compound 13, 2,4-dichloro-N-(4-(N-(2,6-dimethylpyrimidin-4-yl)sulfamoyl)phenylcarbamoyl) benzamide]
PC-TP
  IC50: 2.3 µM
StarD10
  IC50: 20 µM

## Cc1cc(C)cc(NS(=O)(=O)c2ccc(NC(=O)NC(=O)c3ccc(Cl)cc3Cl)cc2)c1 [Compound 14]
PC-TP
  IC50: 20 µM

## Cc1cc(C)nc(NS(=O)(=O)c2ccc(NC(=O)N(C)C(=O)c3ccc(Cl)cc3Cl)cc2)n1 [Compound 15, 2,4-dichloro-N-(4-(N-(4,6-dimethylpyrimidin-2-yl)sulfamoyl)phenylcarbamoyl)-N-methylbenzamide]
PC-TP
  IC50: 8 µM
StarD10
  IC50: 17 µM

## O=C(Nc1cc(Cl)cc(Cl)c1)C(Sc1cccc[n+]1[O-])c1ccccc1 (stereo not drawn) [Compound 16, 2-(2-(3,5-dichlorophenylamino)-2-oxo-1-phenylethylthio)pyridine 1-oxide]
PC-TP
  IC50: 3.6 µM
StarD10
  IC50: 20 µM
StarD7
  IC50: 66 µM
[1]
  Activation of insulin signaling: activated insulin signaling

## COc1ccc(NC(=O)C(Sc2cccc[n+]2[O-])c2ccccc2)cc1Cl (stereo not drawn) [Compound 17, 2-(2-(3-chloro-4-methoxyphenylamino)-2-oxo-1-phenylethylthio)pyridine 1-oxide]
PC-TP
  IC50: 20 µM

## O=C(Nc1cccc(C(F)(F)F)c1)C(Sc1cccc[n+]1[O-])c1ccccc1 (stereo not drawn) [Compound 19, 2-(2-oxo-1-phenyl-2-(3-(trifluoromethyl)phenylamino)ethylthio)pyridine 1-oxide]
PC-TP
  IC50: 11 µM

## O=C(Nc1cc(C(F)(F)F)cc(C(F)(F)F)c1)C(Sc1cccc[n+]1[O-])c1ccccc1 (stereo not drawn) [Compound 20, 2-(2-(3,5-bis(trifluoromethyl)phenylamino)-2-oxo-1-phenylethylthio)pyridine 1-oxide]
PC-TP
  IC50: 13 µM

## O=C(Nc1cc(Cl)cc(Cl)c1)C(Sc1cccc[n+]1[O-])c1ccccc1Cl (stereo not drawn) [Compound 21, 2-(1-(2-chlorophenyl)-2-(3,5-dichlorophenylamino)-2-oxoethylthio)pyridine 1-oxide]
PC-TP
  IC50: 15 µM

## COc1ccccc1C(Sc1cccc[n+]1[O-])C(=O)Nc1cc(Cl)cc(Cl)c1 (stereo not drawn) [Compound 22, 2-(2-(3,5-dichlorophenylamino)-1-(2-methoxyphenyl)-2-oxoethylthio)pyridine 1-oxide]
PC-TP
  IC50: 4.1 µM

## O=C(Nc1cc(Cl)cc(Cl)c1)C(Sc1cccc[n+]1[O-])c1cccc2ccccc12 (stereo not drawn) [Compound 23, 2-(2-(3,5-dichlorophenylamino)-1-(naphthalen-1-yl)-2-oxoethylthio)pyridine 1-oxide]
PC-TP
  IC50: 12 µM

## O=C(Nc1cc(Cl)cc(Cl)c1)C(Sc1cc2ccccc2c[n+]1[O-])c1ccccc1 (stereo not drawn) [Compound 24, 3-(2-(3,5-dichlorophenylamino)-2-oxo-1-phenylethylthio)isoquinoline 2-oxide]
PC-TP; at 30 μM
  inhibition at 30 µM: 25%

## COc1ccc(C(Sc2cccc[n+]2[O-])C(=O)Nc2cc(Cl)cc(Cl)c2)cc1 (stereo not drawn) [Compound 25, 2-(2-(3,5-dichlorophenylamino)-1-(4-methoxyphenyl)-2-oxoethylthio)pyridine 1-oxide]
PC-TP
  inhibition at 50 µM: 30%

## O=C(Nc1cc(Cl)cc(Cl)c1)C(Sc1cccc[n+]1[O-])c1ccc2ccccc2c1 (stereo not drawn) [Compound 26, 2-(2-(3,5-dichlorophenylamino)-1-(naphthalen-2-yl)-2-oxoethylthio)pyridine 1-oxide]
PC-TP
  inhibition at 50 µM: 20%

## O=C(Nc1ccc(Cl)cc1C(F)(F)F)C(Sc1cccc[n+]1[O-])c1ccccc1 (stereo not drawn) [Compound 28, 2-(2-(4-chloro-2-(trifluoromethyl)phenylamino)-2-oxo-1-phenylethylthio)pyridine 1-oxide]
PC-TP
  IC50: ~50 µM

## CCN(CC)CCN(C(=O)Nc1ccc(S(=O)(=O)Nc2nc(C)cc(C)n2)cc1)C(=O)c1ccc(Cl)cc1Cl [Compound 29, 2,4-dichloro-N-(2-(diethylamino)ethyl)-N-((4-(N-(4,6-dimethylpyrimidin-2-yl)sulfamoyl)phenyl)carbamoyl)benzamide]
PC-TP
  Activity (PC-TP), result in words: High fluoroescense

## CCN(CC)CCN(c1nc(C)cc(C)n1)S(=O)(=O)c1ccc(NC(=O)NC(=O)c2ccc(Cl)cc2Cl)cc1 [Compound 30, 2,4-dichloro-N-((4-(N-(2-(diethylamino)ethyl)-N-(4,6-dimethylpyrimidin-2-yl)sulfamoyl)phenyl)carbamoyl)benzamide]
PC-TP
  Activity (PC-TP), result in words: High fluorescense

## O=C(Nc1cc(C(F)(F)F)ccc1Cl)C(Sc1cccc[n+]1[O-])c1ccccc1 (stereo not drawn) [Compound 31, 2-(2-(2-chloro-5-(trifluoromethyl)phenylamino)-2-oxo-1-phenylethylthio)pyridine 1-oxide]
PC-TP
  IC50: > 100 µM

## CCOc1ccccc1NC(=O)C(Sc1cccc[n+]1[O-])c1ccccc1 (stereo not drawn) [Compound 32, 2-(2-(2-ethoxyphenylamino)-2-oxo-1-phenylethylthio)pyridine 1-oxide]
PC-TP
  IC50: > 100 µM

## O=C(Nc1ccccc1Cl)C(Sc1cccc[n+]1[O-])c1ccccc1 (stereo not drawn) [Compound 33, 2-(2-(2-chlorophenylamino)-2-oxo-1-phenylethylthio)pyridine 1-oxide]
PC-TP
  IC50: 15 µM
StarD10
  IC50: 23 µM

## COc1ccccc1NC(=O)C(Sc1cccc[n+]1[O-])c1ccccc1 (stereo not drawn) [Compound 34, 2-(2-(2-methoxyphenylamino)-2-oxo-1-phenylethylthio)pyridine 1-oxide]
PC-TP
  IC50: 4 µM
StarD10
  IC50: 15 µM
